Our source for the MIC50 and IC50 values is ChEMBL document CHEMBL4033624, “Synthesis and evaluation of adenosine containing 3-arylfuran-2(5H)-ones as tyrosyl-tRNA synthetase inhibitors” (Eur J Med Chem, 2017).

Values after ≈ are worked out from the molar mass of the structure shown.

One assay concerns Staphylococcus aureus. The assay can be described thus: Antibacterial activity against Staphylococcus aureus ATCC 6538 after 4 to 5 hrs by MTT assay. Format: functional.
The nature of assay [1]: Inhibition of TyrRS (unknown origin) expressed in Escherichia coli using L-[ring-3,5-3H] tyrosine as substrate preincubated for 10 mins followed by substrate addition measured by liquid scintillation counting method. Further details: species or system Bacteria.
Another assay concerns Pseudomonas aeruginosa. The assay can be described thus: Antibacterial activity against Pseudomonas aeruginosa ATCC 9027 after 4 to 5 hrs by MTT assay. Format: functional. (In general: Formazan colour is commonly taken as a measure of viable cells.)
In another assay the test system is Escherichia coli. As to the kind of experiment: Antibacterial activity against Escherichia coli ATCC 8739 after 4 to 5 hrs by MTT assay. The format is functional.

`CC1(C)O[C@@H]2[C@H](O1)[C@@H](CNC(=O)COC1=C(c3ccccc3Cl)C(=O)OC1)O[C@H]2n1cnc2c(N)ncnc21`: the MIC50 came out at 30.3 µg/mL (≈ 54.4 µM) in the assay on Staphylococcus aureus, 25.6 µg/mL (≈ 46 µM) in the assay on Pseudomonas aeruginosa and 15.8 µg/mL (≈ 28.4 µM) against Escherichia coli. In assay [1], the IC50 was determined as 24.3 µM.
In the case of `Nc1ncnc2c1ncn2[C@@H]1O[C@H](CNC(=O)COC2=C(c3ccc(F)cc3)C(=O)OC2)[C@@H](O)[C@H]1O`, the MIC50 stood at 72.7 µg/mL (≈ 145 µM) in the assay on Staphylococcus aureus, 47.4 µg/mL (≈ 94.7 µM) in the assay with Pseudomonas aeruginosa and 39.2 µg/mL (≈ 78.3 µM) against Escherichia coli. The same compound yielded an IC50 in assay [1] of 31.7 µM.
Take `CC1(C)O[C@@H]2[C@H](O1)[C@@H](CNC(=O)COC1=C(c3ccc(F)cc3)C(=O)OC1)O[C@H]2n1cnc2c(N)ncnc21`: the MIC50 in the assay with Staphylococcus aureus, against Pseudomonas aeruginosa and in the assay on Escherichia coli was > 100 µg/mL throughout. The IC50 in assay [1] is > 100 µM.
On to `CC1(C)O[C@@H]2[C@H](O1)[C@@H](CNC(=O)COC1=C(c3ccc(Cl)cc3)C(=O)OC1)O[C@H]2n1cnc2c(N)ncnc21`, for which the values for the MIC50 with Staphylococcus aureus, in the assay on Pseudomonas aeruginosa and with Escherichia coli were 39.6 µg/mL (≈ 71.1 µM), 21.4 µg/mL (≈ 38.4 µM) and 20.3 µg/mL (≈ 36.4 µM), respectively. In assay [1], this compound gave an IC50 of 22.7 µM.
For `CCOc1ccc(C2=C(OCC(=O)NC[C@H]3O[C@@H](n4cnc5c(N)ncnc54)[C@H](O)[C@@H]3O)COC2=O)cc1OCC` the same measures were > 100 µg/mL, > 100 µg/mL, > 100 µg/mL and > 100 µM.
For `Nc1ncnc2c1ncn2[C@@H]1O[C@H](CNC(=O)c2cccc(Br)c2)[C@@H](O)[C@H]1O` the same measures were > 100 µg/mL, > 100 µg/mL, > 100 µg/mL and 94.5 µM.
Consider `COc1ccc(C2=C(OCC(=O)NC[C@H]3O[C@@H](n4cnc5c(N)ncnc54)[C@@H]4OC(C)(C)O[C@@H]43)COC2=O)cc1OC`, for which the MIC50 with Staphylococcus aureus, against Pseudomonas aeruginosa and in the assay on Escherichia coli was > 100 µg/mL each time. Further, the IC50 in assay [1] is > 100 µM.
Take `Nc1ncnc2c1ncn2[C@@H]1O[C@H](CNC(=O)COC2=C(c3ccc(Br)cc3)C(=O)OC2)[C@@H](O)[C@H]1O`: the values for the MIC50 in the assay on Staphylococcus aureus, in the assay on Pseudomonas aeruginosa and in the assay with Escherichia coli were 75.1 µg/mL (≈ 134 µM), 40.5 µg/mL (≈ 72.1 µM) and 46.6 µg/mL (≈ 83 µM), respectively. This compound also came in with an IC50 in assay [1] of 29.1 µM.
For `CC1(C)O[C@@H]2[C@H](O1)[C@@H](CNC(=O)COC1=C(c3ccc(Br)cc3)C(=O)OC1)O[C@H]2n1cnc2c(N)ncnc21` the same measures were > 100 µg/mL, > 100 µg/mL, 98.6 µg/mL (≈ 164 µM) and 92.6 µM.
`CC1(C)O[C@@H]2[C@H](O1)[C@@H](CNC(=O)c1cccc(Br)c1)O[C@H]2n1cnc2c(N)ncnc21`: the MIC50 against Staphylococcus aureus, against Pseudomonas aeruginosa and in the assay on Escherichia coli was > 100 µg/mL each time. Further, the IC50 in assay [1] is > 100 µM.
As for `COc1ccc(C2=C(OCC(=O)NC[C@H]3O[C@@H](n4cnc5c(N)ncnc54)[C@H](O)[C@@H]3O)COC2=O)cc1OC`, the MIC50 with Staphylococcus aureus, against Pseudomonas aeruginosa and in the assay on Escherichia coli was > 100 µg/mL in each case. The IC50 in assay [1] is > 100 µM.
Consider `CC1(C)O[C@@H]2[C@H](O1)[C@@H](CNC(=O)COC1=C(c3cccc(F)c3)C(=O)OC1)O[C@H]2n1cnc2c(N)ncnc21`, for which the MIC50 in the assay on Staphylococcus aureus was > 100 µg/mL; against Pseudomonas aeruginosa it was 82.8 µg/mL (≈ 153 µM); with Escherichia coli it was 83.6 µg/mL (≈ 155 µM). In assay [1], this compound came in with an IC50 of 56 µM.
In the case of `CCOc1ccc(C2=C(OCC(=O)NC[C@H]3O[C@@H](n4cnc5c(N)ncnc54)[C@@H]4OC(C)(C)O[C@@H]43)COC2=O)cc1OCC`, the MIC50 against Staphylococcus aureus, against Pseudomonas aeruginosa and with Escherichia coli was > 100 µg/mL each time. Besides, in assay [1], the IC50 is > 100 µM.
With `CC1(C)O[C@@H]2[C@H](O1)[C@@H](CNC(=O)COC1=C(c3ccc(Cl)cc3Cl)C(=O)OC1)O[C@H]2n1cnc2c(N)ncnc21`, the MIC50 is > 100 µg/mL in the assay on Staphylococcus aureus, 90.9 µg/mL (≈ 154 µM) against Pseudomonas aeruginosa and > 100 µg/mL in the assay on Escherichia coli. This compound registered an IC50 in assay [1] of 83.8 µM.
With `CC1(C)O[C@@H]2[C@H](O1)[C@@H](CNC(=O)COC1=C(c3ccc(Cl)c(Cl)c3)C(=O)OC1)O[C@H]2n1cnc2c(N)ncnc21`, the values for the MIC50 in the assay on Staphylococcus aureus, with Pseudomonas aeruginosa and against Escherichia coli were 90.7 µg/mL (≈ 153 µM), 63.7 µg/mL (≈ 108 µM) and 60.2 µg/mL (≈ 102 µM), respectively. Inhibition in assay [1] was half-maximal at 33.4 µM (IC50).
For `Nc1ncnc2c1ncn2[C@@H]1O[C@H](CNC(=O)COC2=C(c3ccc(Cl)cc3Cl)C(=O)OC2)[C@@H](O)[C@H]1O`, in that order: 55.4 µg/mL (≈ 100 µM), 33.6 µg/mL (≈ 60.9 µM), 29.4 µg/mL (≈ 53.3 µM) and 26.1 µM.
`O=C(O)c1cn(C2CC2)c2cc(N3CCNCC3)c(F)cc2c1=O` [CIPROFLOXACIN]: the values for the MIC50 in the assay on Pseudomonas aeruginosa and in the assay on Escherichia coli were 0.64 µg/mL (≈ 1.93 µM) and 0.1 µg/mL (≈ 0.302 µM), respectively.
In the assay with Staphylococcus aureus, `CC1(C)S[C@@H]2[C@H](NC(=O)Cc3ccccc3)C(=O)N2[C@H]1C(=O)[O-].[Na+]` [PENICILLIN G SODIUM] displayed an MIC50 of 0.57 µg/mL.

As usually defined, the MIC50 is an inhibitory concentration at the 50% level, which refers to growth in some studies and to a panel of isolates in others. A low value points to greater potency. The IC50 is the concentration that inhibits the measured activity by half. Low values mean inhibition by little substance, high ones a need for much substance.
